Laboratory results from ChEMBL document CHEMBL1150977, “A quantitative analysis of kinase inhibitor selectivity” (Nat Biotechnol, 2008).
pKd: −log10 of the molar value.

Experiments:
[1] = molecular target: T1, Protein kinase C epsilon type (Homo sapiens, UniProt Q02156)
T1 sequence (Q02156 whole entry): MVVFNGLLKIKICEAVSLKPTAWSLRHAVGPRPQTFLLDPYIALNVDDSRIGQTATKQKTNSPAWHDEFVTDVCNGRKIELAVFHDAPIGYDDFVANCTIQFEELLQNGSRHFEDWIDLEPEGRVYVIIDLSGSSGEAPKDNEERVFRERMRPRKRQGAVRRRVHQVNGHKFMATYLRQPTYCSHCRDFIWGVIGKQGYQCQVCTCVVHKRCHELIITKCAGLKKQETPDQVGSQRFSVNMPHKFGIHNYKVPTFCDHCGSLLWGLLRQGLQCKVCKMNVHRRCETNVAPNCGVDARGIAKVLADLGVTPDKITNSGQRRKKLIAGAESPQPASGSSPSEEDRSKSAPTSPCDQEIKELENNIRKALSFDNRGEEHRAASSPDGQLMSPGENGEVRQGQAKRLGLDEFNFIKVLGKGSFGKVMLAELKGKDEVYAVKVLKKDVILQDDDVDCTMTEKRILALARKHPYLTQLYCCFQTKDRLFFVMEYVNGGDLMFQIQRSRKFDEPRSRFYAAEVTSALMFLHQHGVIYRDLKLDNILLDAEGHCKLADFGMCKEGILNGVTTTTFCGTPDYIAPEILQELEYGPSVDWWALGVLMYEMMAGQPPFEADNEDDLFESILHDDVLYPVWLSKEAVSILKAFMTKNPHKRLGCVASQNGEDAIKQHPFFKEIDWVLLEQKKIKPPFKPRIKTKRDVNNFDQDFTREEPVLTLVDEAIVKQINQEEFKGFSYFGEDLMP

[2] = molecular target: T2, Serine/threonine-protein kinase DCLK2 (Homo sapiens, UniProt Q8N568)
T2 sequence (Q8N568 whole entry): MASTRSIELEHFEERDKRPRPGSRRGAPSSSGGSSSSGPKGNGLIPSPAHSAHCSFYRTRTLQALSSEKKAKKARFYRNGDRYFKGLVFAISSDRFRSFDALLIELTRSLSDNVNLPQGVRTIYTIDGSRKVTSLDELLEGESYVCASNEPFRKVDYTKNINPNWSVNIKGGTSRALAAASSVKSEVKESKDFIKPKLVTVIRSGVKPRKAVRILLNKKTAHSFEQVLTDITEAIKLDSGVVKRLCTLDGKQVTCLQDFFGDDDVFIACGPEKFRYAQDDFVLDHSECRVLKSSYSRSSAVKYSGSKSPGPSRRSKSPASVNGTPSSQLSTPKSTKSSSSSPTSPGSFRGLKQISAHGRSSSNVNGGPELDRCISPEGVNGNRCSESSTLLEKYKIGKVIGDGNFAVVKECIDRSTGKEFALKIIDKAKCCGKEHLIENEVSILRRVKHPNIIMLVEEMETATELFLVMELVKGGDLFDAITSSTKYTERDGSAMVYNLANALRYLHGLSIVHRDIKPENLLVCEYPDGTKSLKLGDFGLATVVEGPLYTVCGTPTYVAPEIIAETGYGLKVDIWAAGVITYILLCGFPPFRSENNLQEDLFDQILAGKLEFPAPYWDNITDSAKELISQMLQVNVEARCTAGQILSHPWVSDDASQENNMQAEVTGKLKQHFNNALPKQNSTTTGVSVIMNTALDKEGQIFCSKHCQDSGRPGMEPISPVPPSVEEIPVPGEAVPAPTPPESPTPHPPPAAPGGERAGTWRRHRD

[3] = molecular target: Mitogen-activated protein kinase 10 (Homo sapiens, UniProt P53779)
[4] = molecular target: Insulin-like growth factor 1 receptor (Homo sapiens, UniProt P08069)
[5] = molecular target: T3, Cyclin-dependent kinase 11A (Homo sapiens, UniProt Q9UQ88)
T3 sequence (Q9UQ88 whole entry): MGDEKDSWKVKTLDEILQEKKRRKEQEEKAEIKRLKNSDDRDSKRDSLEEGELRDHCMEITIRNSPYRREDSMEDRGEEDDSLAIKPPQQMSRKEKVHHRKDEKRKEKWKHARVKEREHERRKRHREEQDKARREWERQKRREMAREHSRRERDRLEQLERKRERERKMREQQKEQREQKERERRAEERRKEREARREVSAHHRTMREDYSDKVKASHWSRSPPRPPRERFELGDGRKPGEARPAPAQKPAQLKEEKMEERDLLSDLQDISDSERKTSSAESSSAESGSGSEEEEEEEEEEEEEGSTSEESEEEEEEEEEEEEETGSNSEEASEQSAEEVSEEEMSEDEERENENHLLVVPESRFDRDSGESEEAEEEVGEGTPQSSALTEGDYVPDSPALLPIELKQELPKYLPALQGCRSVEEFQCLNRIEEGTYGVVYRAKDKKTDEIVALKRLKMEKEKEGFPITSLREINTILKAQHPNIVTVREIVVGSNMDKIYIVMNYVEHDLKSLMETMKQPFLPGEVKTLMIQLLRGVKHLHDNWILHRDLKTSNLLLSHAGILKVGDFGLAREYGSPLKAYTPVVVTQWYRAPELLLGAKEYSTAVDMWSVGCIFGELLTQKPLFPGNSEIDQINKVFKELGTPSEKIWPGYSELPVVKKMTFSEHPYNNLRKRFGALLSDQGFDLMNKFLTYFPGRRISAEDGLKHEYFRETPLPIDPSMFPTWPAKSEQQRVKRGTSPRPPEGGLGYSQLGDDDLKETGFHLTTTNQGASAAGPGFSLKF

[6] = molecular target: Serine/threonine-protein kinase B-raf (Homo sapiens, UniProt P15056, V600E)
Sequence of Serine/threonine-protein kinase B-raf (P15056 2-766 V600E limits assumed): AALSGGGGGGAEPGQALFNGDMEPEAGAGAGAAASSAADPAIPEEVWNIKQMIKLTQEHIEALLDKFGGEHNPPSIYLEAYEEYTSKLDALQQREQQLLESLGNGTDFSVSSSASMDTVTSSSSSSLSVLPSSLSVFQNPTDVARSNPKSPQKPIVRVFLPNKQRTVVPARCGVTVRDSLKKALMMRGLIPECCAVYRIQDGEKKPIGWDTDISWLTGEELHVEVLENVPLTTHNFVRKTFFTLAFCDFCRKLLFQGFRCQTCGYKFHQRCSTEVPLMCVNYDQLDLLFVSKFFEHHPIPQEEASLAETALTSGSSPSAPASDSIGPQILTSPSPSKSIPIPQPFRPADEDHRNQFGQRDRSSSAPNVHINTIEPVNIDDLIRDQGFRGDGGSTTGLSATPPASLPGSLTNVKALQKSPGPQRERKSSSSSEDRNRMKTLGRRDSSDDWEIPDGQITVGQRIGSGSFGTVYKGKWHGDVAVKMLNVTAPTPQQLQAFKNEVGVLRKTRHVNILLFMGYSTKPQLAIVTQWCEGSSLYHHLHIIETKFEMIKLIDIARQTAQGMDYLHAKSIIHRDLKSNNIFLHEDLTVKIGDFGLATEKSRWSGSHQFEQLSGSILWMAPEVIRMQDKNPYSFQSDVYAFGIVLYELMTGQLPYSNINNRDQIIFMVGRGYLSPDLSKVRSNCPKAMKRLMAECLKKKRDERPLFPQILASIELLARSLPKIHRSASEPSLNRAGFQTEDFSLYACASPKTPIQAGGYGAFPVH

Sequence of Mitogen-activated protein kinase 10 (P53779 whole entry): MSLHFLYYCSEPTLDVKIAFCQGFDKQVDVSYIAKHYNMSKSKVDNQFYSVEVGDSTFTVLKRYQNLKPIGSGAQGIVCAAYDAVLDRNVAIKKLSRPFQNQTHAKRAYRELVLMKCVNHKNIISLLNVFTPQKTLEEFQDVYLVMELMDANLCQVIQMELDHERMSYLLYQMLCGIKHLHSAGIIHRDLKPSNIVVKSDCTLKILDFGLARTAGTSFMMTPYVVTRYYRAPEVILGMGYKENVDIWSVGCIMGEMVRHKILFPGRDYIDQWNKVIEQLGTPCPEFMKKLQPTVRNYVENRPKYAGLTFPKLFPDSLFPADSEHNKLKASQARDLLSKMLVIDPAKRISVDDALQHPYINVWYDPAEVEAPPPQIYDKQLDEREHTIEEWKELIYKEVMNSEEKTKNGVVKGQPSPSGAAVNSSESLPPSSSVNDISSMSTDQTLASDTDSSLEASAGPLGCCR
Sequence of Insulin-like growth factor 1 receptor (P08069 31-736 limits assumed): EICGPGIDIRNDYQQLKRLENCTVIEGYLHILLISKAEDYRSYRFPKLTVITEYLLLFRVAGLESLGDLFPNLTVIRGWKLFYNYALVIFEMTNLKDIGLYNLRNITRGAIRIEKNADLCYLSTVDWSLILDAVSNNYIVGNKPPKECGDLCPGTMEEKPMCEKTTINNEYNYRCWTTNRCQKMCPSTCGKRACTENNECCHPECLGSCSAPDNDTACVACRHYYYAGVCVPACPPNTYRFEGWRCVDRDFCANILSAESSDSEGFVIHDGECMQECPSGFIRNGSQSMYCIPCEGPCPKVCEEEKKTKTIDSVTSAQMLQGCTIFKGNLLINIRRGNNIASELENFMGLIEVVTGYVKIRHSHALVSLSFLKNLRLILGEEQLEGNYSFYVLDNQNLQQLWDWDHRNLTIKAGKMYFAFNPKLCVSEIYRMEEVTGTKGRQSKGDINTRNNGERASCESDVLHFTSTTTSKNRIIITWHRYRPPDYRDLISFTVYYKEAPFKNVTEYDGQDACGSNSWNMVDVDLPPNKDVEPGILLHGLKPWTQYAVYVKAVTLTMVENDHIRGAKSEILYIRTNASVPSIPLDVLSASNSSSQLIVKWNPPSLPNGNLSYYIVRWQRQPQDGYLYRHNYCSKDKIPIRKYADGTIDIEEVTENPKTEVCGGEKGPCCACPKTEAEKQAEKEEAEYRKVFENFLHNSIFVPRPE
Sequence of Insulin-like growth factor 1 receptor (P08069 741-1367 limits assumed): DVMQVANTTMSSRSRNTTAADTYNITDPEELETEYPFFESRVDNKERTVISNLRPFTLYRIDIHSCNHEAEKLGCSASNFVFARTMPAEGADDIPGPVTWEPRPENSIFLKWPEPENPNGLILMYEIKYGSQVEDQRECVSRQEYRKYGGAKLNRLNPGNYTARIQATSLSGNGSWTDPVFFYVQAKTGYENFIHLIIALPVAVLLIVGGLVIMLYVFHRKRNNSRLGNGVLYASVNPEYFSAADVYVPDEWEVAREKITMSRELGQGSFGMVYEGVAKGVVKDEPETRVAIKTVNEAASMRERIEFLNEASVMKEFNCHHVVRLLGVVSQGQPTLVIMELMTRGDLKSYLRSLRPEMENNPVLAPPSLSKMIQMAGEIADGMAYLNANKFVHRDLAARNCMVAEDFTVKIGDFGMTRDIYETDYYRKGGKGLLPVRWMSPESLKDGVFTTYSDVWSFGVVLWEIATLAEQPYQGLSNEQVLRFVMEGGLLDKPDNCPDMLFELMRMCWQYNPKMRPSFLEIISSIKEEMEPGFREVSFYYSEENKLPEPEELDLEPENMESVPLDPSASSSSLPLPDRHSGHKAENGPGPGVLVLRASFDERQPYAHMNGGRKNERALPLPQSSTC

Row | Compound | pKd [1] | pKd [2] | pKd [3] | pKd [4] | pKd [5] | pKd [6]
1 | COCC(=O)NC/C=C/c1ccc2ncnc(Nc3ccc(Oc4ccc(C)nc4)c(C)c3)c2c1 [CP-724714] | < 5.00 | < 5.00 | < 5.00 | < 5.00 | < 5.00 | –
2 | NC(=O)c1ccc(-c2nc(-c3ccc4c(c3)OCO4)c(-c3ccccn3)[nH]2)cc1 [SB-431542] | < 5.00 | < 5.00 | < 5.00 | < 5.00 | < 5.00 | –
3 | Nc1nc(Nc2ccc(S(N)(=O)=O)cc2)nn1C(=O)c1c(F)cccc1F [JNJ-7706621] | < 5.00 | 5.35 | – | – | – | < 5.00
4 | CCOc1cc2ncc(C#N)c(Nc3ccc(F)c(Cl)c3)c2cc1NC(=O)/C=C/CN(C)C [PELITINIB] | < 5.00 | < 5.00 | < 5.00 | < 5.00 | < 5.00 | < 5.00
5 | Oc1ccc(-c2nc(-c3ccncc3)c(-c3ccc(F)cc3)[nH]2)cc1 [SB-202190] | < 5.00 | < 5.00 | 7.38 | < 5.00 | < 5.00 | 6.21
